Reference: patent US8906904B2, “Alkoxy pyrazoles as soluble guanylate cyclase activators” (Boehringer Ingelheim International GmbH, priority 2012, dated 2014)
≈ marks a conversion by molar mass, not a printed value.

Experiments:
[1] = target: T1, human soluble guanylate cyclase alpha 1 and beta 1 subunits (sGC) (Homo sapiens, UniProt Q02108+Q02153); assay: sGC cellular activator assay (cGMP, HTRF); format: cell-based; settings: CHO cells stably expressing human sGC alpha 1/beta 1, preincubated with 40 microM ODQ; cGMP readout; assay run with and without 50% human serum, Table 2 does not say which
T1 construct: expressed in transfected cells; host or cells: Chinese hamster ovary (CHO) cells, stably transfected
T1 sequence (Q02108 1-690): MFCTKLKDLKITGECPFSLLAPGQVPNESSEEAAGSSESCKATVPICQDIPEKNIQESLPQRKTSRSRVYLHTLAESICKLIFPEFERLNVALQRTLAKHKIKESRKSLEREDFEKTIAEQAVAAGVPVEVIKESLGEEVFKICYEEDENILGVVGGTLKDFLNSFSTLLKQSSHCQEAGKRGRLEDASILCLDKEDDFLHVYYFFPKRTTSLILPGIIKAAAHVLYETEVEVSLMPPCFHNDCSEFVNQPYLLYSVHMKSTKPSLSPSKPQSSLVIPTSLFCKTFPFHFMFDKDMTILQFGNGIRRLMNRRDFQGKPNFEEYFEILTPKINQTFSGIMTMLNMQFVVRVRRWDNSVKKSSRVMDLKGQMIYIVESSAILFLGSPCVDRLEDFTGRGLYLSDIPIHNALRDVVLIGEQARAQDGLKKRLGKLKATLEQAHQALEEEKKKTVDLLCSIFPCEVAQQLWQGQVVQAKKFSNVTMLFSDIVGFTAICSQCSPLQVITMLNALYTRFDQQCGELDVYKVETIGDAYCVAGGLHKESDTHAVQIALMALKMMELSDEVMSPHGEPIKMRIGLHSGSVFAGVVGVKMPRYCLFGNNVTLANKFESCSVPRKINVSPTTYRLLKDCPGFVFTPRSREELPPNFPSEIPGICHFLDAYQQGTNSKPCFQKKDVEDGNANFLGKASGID
T1 sequence (Q02153 1-619): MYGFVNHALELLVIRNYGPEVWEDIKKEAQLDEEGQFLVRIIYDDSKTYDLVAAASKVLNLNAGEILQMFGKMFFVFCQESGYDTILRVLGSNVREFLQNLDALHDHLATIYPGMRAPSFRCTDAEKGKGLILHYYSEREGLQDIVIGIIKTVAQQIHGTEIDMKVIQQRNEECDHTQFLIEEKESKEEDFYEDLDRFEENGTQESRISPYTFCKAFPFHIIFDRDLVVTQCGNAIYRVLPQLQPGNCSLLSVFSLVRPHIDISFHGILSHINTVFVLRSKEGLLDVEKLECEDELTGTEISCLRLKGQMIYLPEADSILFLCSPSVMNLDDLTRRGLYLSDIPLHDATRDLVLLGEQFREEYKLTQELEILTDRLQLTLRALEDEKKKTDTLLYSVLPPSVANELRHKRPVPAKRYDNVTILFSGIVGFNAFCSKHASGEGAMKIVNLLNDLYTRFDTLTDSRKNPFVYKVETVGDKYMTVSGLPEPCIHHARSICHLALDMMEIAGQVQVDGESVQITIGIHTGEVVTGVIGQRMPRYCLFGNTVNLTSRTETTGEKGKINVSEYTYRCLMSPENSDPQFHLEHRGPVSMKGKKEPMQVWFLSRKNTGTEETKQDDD
How it was run: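 First, CHO-sGC (human α1β1) cells get 1 h ODQ at 40 microM with IBMX and 0.1% BSA. Finally, cGMP is quantified by HTRF and EC50 computed.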

[2] = Assessment of solubility (McIlvaine buffers, 24 h shake, UPLC-UV); format: physicochemical; settings: kinetic from dmso stock
How it was run: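 Compounds from 10 mM DMSO stocks were shaken for 24 h at room temperature in McIlvaine buffers at pH 2.2, 4.5 and 6.8 (2.5% v/v DMSO final), then filtered. Filtrates were quantified by UPLC-UV at 254 nm against a 50:50 acetonitrile/water reference assumed fully dissolved, as a single determination.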

Row | Compound | EC50 [1] | solubility at 24 h ([2]; pH 2.2, aqueous buffer) | solubility at 24 h ([2]; pH 4.5, aqueous buffer) | solubility at 24 h ([2]; pH 6.8, aqueous buffer)
1 | CCOc1c(C(=O)O)cnn1-c1cccc(-c2cccc(C)c2OCc2ccc3c(c2C)CCN(CC2COCCO2)C3)n1 (stereo in doubt) [Compound 185, 1-{6-[2-(2-(S)-1-[1,4]Dioxan-2-ylmethyl-5-methyl-1,2,3,4-tetrahydro-isoquinolin-6-ylmethoxy)-3-methyl-phenyl]-pyridin-2-yl}-5-ethoxy-1H-pyrazole-4-carboxylic acid] | 30 nM | 100 µg/mL (≈ 167 µM) | 83 µg/mL (≈ 139 µM) | 82 µg/mL (≈ 137 µM)
2 | COc1c(C(=O)O)cnn1-c1cccc(-c2cccc(C)c2OCc2ccc3c(c2)CCN(C2CCOC2)C3)n1 (stereo not drawn) [Compound 15] | 28 nM | 110 µg/mL (≈ 203 µM) | 88 µg/mL (≈ 163 µM) | 90 µg/mL (≈ 166 µM)
3 | COc1c(C(=O)O)cnn1-c1cccc(-c2cccc(C)c2OCc2ccc3c(c2C)CCN(C2COC2)C3)n1 [Compound 16] | 23 nM | 95 µg/mL (≈ 176 µM) | 71 µg/mL (≈ 131 µM) | 81 µg/mL (≈ 150 µM)
4 | COc1c(C(=O)O)cnn1-c1cccc(-c2cccc(C)c2OCc2ccc3c(c2Cl)CCN(C2COC2)C3)n1 [Compound 17] | 18 nM | 97 µg/mL (≈ 173 µM) | 62 µg/mL (≈ 111 µM) | 85 µg/mL (≈ 152 µM)
5 | COc1c(C(=O)O)cnn1-c1cccc(-c2cccc(C)c2OCc2ccc3c(c2Cl)CCN(C2CCOCC2)C3)n1 [Compound 18] | 8 nM | 110 µg/mL (≈ 187 µM) | 86 µg/mL (≈ 146 µM) | 90 µg/mL (≈ 153 µM)
6 | COc1c(C(=O)O)cnn1-c1cccc(-c2cccc(C)c2OCc2ccc3c(c2Cl)CCN(CC2(C)COC2)C3)n1 [Compound 19] | 17 nM | 96 µg/mL (≈ 163 µM) | 70 µg/mL (≈ 119 µM) | 75 µg/mL (≈ 127 µM)
7 | COc1c(C(=O)O)cnn1-c1cccc(-c2cccc(C)c2OCc2ccc3c(c2Cl)CCN(C2CCC2)C3)n1 [Compound 20] | 24 nM | 95 µg/mL (≈ 170 µM) | 72 µg/mL (≈ 129 µM) | 68 µg/mL (≈ 122 µM)
8 | COc1c(C(=O)O)cnn1-c1cccc(-c2cccc(C)c2OCc2ccc3c(c2Cl)CCN(CC(C)(C)C)C3)n1 [Compound 21] | 17 nM | 96 µg/mL (≈ 167 µM) | 62 µg/mL (≈ 108 µM) | 60 µg/mL (≈ 104 µM)
9 | COc1c(C(=O)O)cnn1-c1cccc(-c2cccc(C)c2OCc2ccc3c(c2Cl)CCN(C2CCOC2)C3)n1 (stereo not drawn) [Compound 22] | 14 nM | 97 µg/mL (≈ 169 µM) | 68 µg/mL (≈ 118 µM) | 73 µg/mL (≈ 127 µM)
10 | COCC(C)N1CCc2cc(COc3c(C)cccc3-c3cccc(-n4ncc(C(=O)O)c4OC)n3)ccc2C1 (stereo not drawn) [Compound 23] | 52 nM | 99 µg/mL (≈ 182 µM) | 79 µg/mL (≈ 146 µM) | 82 µg/mL (≈ 151 µM)
11 | COc1c(C(=O)O)cnn1-c1cccc(-c2cccc(C)c2OCc2ccc3c(c2)CCN(CC2CC2)C3)n1 [Compound 24] | 54 nM | 95 µg/mL (≈ 181 µM) | 76 µg/mL (≈ 145 µM) | 76 µg/mL (≈ 145 µM)
12 | COc1c(C(=O)O)cnn1-c1cccc(-c2cccc(C)c2OCc2ccc3c(c2)CCN(CC2CCC2)C3)n1 [Compound 25] | 16 nM | 91 µg/mL (≈ 169 µM) | 38 µg/mL (≈ 70.5 µM) | 39 µg/mL (≈ 72.4 µM)
13 | COc1c(C(=O)O)cnn1-c1cccc(-c2cccc(C)c2OCc2ccc3c(c2)CCN(CC2CC(F)(F)C2)C3)n1 [Compound 26] | 5 nM | 100 µg/mL (≈ 174 µM) | 80 µg/mL (≈ 139 µM) | 80 µg/mL (≈ 139 µM)
14 | COc1c(C(=O)O)cnn1-c1cccc(-c2cccc(C)c2OCc2ccc3c(c2C)CCN(C2CCOCC2)C3)n1 [Compound 27] | 14 nM | 110 µg/mL (≈ 193 µM) | 88 µg/mL (≈ 155 µM) | 90 µg/mL (≈ 158 µM)
15 | COc1c(C(=O)O)cnn1-c1cccc(-c2cccc(C)c2OCc2ccc3c(c2C)CCN(CC2(C)COC2)C3)n1 [Compound 28] | 13 nM | 110 µg/mL (≈ 193 µM) | 83 µg/mL (≈ 146 µM) | 90 µg/mL (≈ 158 µM)
